Where two headings read alike, the source gives them in different places.
Columns and labels:
[1] = cited from earlier work
[2] = tested on: Pseudomonas aeruginosa (Pa) ATCC 19429; assay: Challenge Test (artificial contamination) of cosmetic formula; conditions: 22° C., chlorhexidine digluconate 0.3%, gingerone 2%
Method: The antimicrobial efficacy of a compound of formula (I) was evaluated via the Challenge Test or artificial contamination method.
The method of the challenge test consists of an artificial contamination of the sample with collection microbial strains (bacteria, yeasts and moulds) and evaluation of the number of revivable microorganisms seven days after the inoculation.
The gram-negative bacteria (Escherichia coli and Pseudomonas aeruginosa), gram-positive bacteria (Enterococcus faecalis), yeast (Candida albicans) and mould (Aspergillus niger) are seeded in the subculturing medium, respectively, the day before the inoculation for the bacteria and the yeast, and five days before the inoculation for the mould.
After homogenizing the microbial suspension, 0.2 ml of inoculum is introduced into each pill bottle (the suspensions are used pure: between 1×10^8 and 3×10^8 cfu per ml) and the microbial suspension in the 20 g of product (=cosmetic formula) is homogenized thoroughly using a spatula.
The content of microorganisms present in the product corresponds after homogenization to a concentration of 10^6 microorganisms per gram of product, i.e. inoculation to 1% of an inoculum containing 10^8 microorganisms per ml.
After 7 days of contact time between the microorganisms and the product at 22° C.±2° C. and in darkness, decimal dilutions are performed and the number of revivable microorganisms remaining in the product is counted.

[3] = tested on: Candida albicans (ATCC 10231); assay: Action kinetics in broth; format: cell-based; conditions: Sabouraud broth pH 5.2±0.3, 35° C., gingerone 2%, sodium benzoate 3.3%, chlorhexidine digluconate 2.2%
Method: (§1) The object of this example is to distinguish a compound according to the invention (gingerone) from the preserving agents conventionally used for protecting cosmetic formulations against microbial contamination, as regards the action kinetics.
(§2) The solutions are prepared in Trypto-casein-soya (TS) broth for the bacteria and in Sabouraud broth for the yeast. These solutions are adjusted to pH 5.2±0.3.
(§3) For each microbial solution, a growth control consisting of the appropriate culture medium alone is prepared.
The solutions in Sabouraud broth (36 ml) are inoculated with the yeast (4 ml of suspension) to a final content of 10^6 cfu/ml.
(§4) The inoculated samples are then placed in an incubator-agitator at 35° C.±2° C. Samples are taken after 6 hours, 24 hours, 48 hours, 72 hours and 7 days. Decimal dilutions are then prepared in Eugon LT100 broth. These dilutions are left for 30 minutes±15 minutes at 25° C. in order to neutralize the preserving agents, and are then double-seeded on the surface of Petri dishes containing Eugon LT100 agar.
(§5) The Petri dishes are then incubated in an oven at 35° C.±2° C. for a variable time depending on the strain concerned: • 48 hours; S. aureus; • 5 days: E. faecalis and C. albicans.
(§6) The results are expressed for each solution, each strain and each contact time as the number of cfu/ml of stock solution.

[4] = tested on: Candida albicans (Ca) ATCC 10231; assay: Challenge Test (artificial contamination) of cosmetic formula; format: cell-based; conditions: 22° C., chlorhexidine digluconate 0.3%, gingerone 2%; for Log reduction number after 7 days of contact, relative to the control, C. albicans: 1st formula O/W emulsion, Amt weight %: phenoxyethanol 1%, sodium benzoate 0.6%; for Log reduction number after 7 days of contact, relative to the control, Candida albicans: Amt weight %: sodium benzoate 0.6%
From the text: (§7) 5 pure microorganism cultures are used.

[5] = tested on: Enterococcus faecalis (Ef) ATCC 33186; assay: as above; format: cell-based; conditions: 22° C., chlorhexidine digluconate 0.3%, gingerone 2%
From the text: as §7

[6] = tested on: Escherichia coli (Ec) ATCC 8739; assay: as above; format: cell-based; conditions: 22° C., chlorhexidine digluconate 0.3%, gingerone 2%
From the text: as §7

[7] = tested on: Aspergillus niger (An) ATCC 6275; assay: as above; format: cell-based; conditions: 22° C., chlorhexidine digluconate 0.3%, gingerone 2%
From the text: as §7

[8] = tested on: Staphylococcus aureus (ATCC 6538); assay: Action kinetics in broth; format: cell-based; conditions: TS broth pH 5.2±0.3, 35° C., gingerone 2%, sodium benzoate 3.3%, chlorhexidine digluconate 2.2%
Method: as §1, §2, §3
(§8) The solutions in TS broth (36 ml) are inoculated separately with each of the bacteria (4 ml of microbial suspension) to a final content of 10^6 cfu/ml of mixture.
as §4, §5, §6

[9] = tested on: Enterococcus faecalis (ATCC 33186); assay: Action kinetics in broth; format: cell-based; conditions: TS broth pH 5.2±0.3, 35° C., gingerone 2%, sodium benzoate 3.3%, chlorhexidine digluconate 2.2%
Method: as §1, §2, §3, §8, §4, §5, §6

[10] = 1st formula O/W emulsion, Amt weight %: phenoxyethanol 1%, sodium benzoate 0.6%
[11] = 2nd formula lotion (pH 7 ± 0.2), Amt weight %: sodium benzoate 0.6%, phenoxyethanol 1%
[12] = 3rd formula O/W emulsion, Amt weight %: sodium benzoate 0.6%
[13] = 2nd formula lotion (pH 7 ± 0.2), phenoxyethanol 1%
[14] = contact time 0 hours, first series
[15] = contact time 0 hours, second series of Table 1
[16] = contact time 6 hours, first series
[17] = contact time 6 hours, second series of Table 1
[18] = contact time 24 hours, first series
[19] = contact time 24 hours, second series of Table 1
[20] = contact time 48 hours, first series
[21] = contact time 48 hours, second series of Table 1
[22] = contact time 72 hours, first series
[23] = contact time 72 hours, second series of Table 1
[24] = contact time 168 hours, first series
[25] = contact time 168 hours, second series of Table 1

Row | Compound | Number of cfu counted after strain/solution contact time, Candida albicans ([3]; contact time 0 hours) | Number of cfu counted after strain/solution contact time, Candida albicans ([3]; contact time 6 hours) [cfu/ml] | Number of cfu counted after strain/solution contact time, Candida albicans ([3]; contact time 24 hours) [cfu/ml] | Number of cfu counted after strain/solution contact time, Candida albicans ([3]; contact time 48 hours) [cfu/ml] | Number of cfu counted after strain/solution contact time, Candida albicans ([3]; contact time 72 hours) [cfu/ml] | Number of cfu counted after strain/solution contact time, Candida albicans ([3]; contact time 168 hours) [cfu/ml] | Log reduction number after 7 days of contact, relative to the control, C. albicans [4] [Log] | Log reduction number after 7 days of contact, relative to the control, Candida albicans [4, 13] [Log] | Log reduction number after 7 days of contact, relative to the control, Candida albicans ([4]; 3rd formula O/W emulsion) [Log] | Log reduction number after 7 days of contact, relative to the control, E. faecalis [5, 10] [Log] | Log reduction number after 7 days of contact, relative to the control, E. faecalis [5, 11] [Log] | Log reduction number after 7 days of contact, relative to the control, E. faecalis [5, 12] [Log] | Log reduction number after 7 days of contact, relative to the control, E. coli [6, 10] [Log] | Log reduction number after 7 days of contact, relative to the control, E. coli [6, 11] [Log] | Log reduction number after 7 days of contact, relative to the control, E. coli [6, 12] [Log] | Log reduction number after 7 days of contact, relative to the control, A. niger [7, 10] [Log] | Log reduction number after 7 days of contact, relative to the control, A. niger [7, 11] [Log] | Log reduction number after 7 days of contact, relative to the control, A. niger [7, 12] [Log] | Number of cfu counted after strain/solution contact time, Staphylococcus aureus [8, 14] | Number of cfu counted after strain/solution contact time, Staphylococcus aureus [8, 15] | other results
1 | [H]/N=C(\N/C(=N/[H])NCCCCCCNC(=N)NC(=N)Nc1ccc(Cl)cc1)Nc1ccc(Cl)cc1 [chlorhexidine] |  |  |  |  |  |  |  |  |  |  |  |  |  |  |  |  |  |  |  |  | pKa ([1]; stated in the conclusion of Example 2, no source): 10.3
2 | COc1cc(C)ccc1O [2-methoxy-4-methylphenol] |  |  |  |  |  |  |  |  |  |  |  |  |  |  |  |  |  |  |  |  | pKa ([1]; value given in the literature): 10.27
3 | N=C(NCCCCCCNC(=N)NC(=N)Nc1ccc(Cl)cc1)NC(=N)Nc1ccc(Cl)cc1.O=C(O)[C@H](O)[C@@H](O)[C@H](O)[C@H](O)CO.O=C(O)[C@H](O)[C@@H](O)[C@H](O)[C@H](O)CO [Chlorhexidine digluconate] | 2.9 × 10^6 cfu/ml | <10 | <10 | <10 | <10 | <10 | 0.3 | 3 | >4 | 0.9 | 1.3 | 1.8 | >4 | 0.8 | >4 | 0.4 | 0.4 | 2.3 | 1.7 × 10^6 cfu/ml | 2.5 × 10^6 cfu/ml | Log reduction number after 7 days of contact, relative to the control, P. aeruginosa [2, 10]: 0.3 Log; Log reduction number after 7 days of contact, relative to the control, P. aeruginosa [2, 11]: 0.5 Log; Log reduction number after 7 days of contact, relative to the control, P. aeruginosa [2, 12]: 0 Log; Number of cfu counted after strain/solution contact time, Staphylococcus aureus [8, 16]: <10 cfu/ml; Number of cfu counted after strain/solution contact time, Staphylococcus aureus [8, 17]: <10 cfu/ml; Number of cfu counted after strain/solution contact time, Staphylococcus aureus [8, 18]: <10 cfu/ml; Number of cfu counted after strain/solution contact time, Staphylococcus aureus [8, 19]: <10 cfu/ml; Number of cfu counted after strain/solution contact time, Staphylococcus aureus [8, 20]: <10 cfu/ml; Number of cfu counted after strain/solution contact time, Staphylococcus aureus [8, 21]: <10 cfu/ml; Number of cfu counted after strain/solution contact time, Staphylococcus aureus [8, 22]: <10 cfu/ml; Number of cfu counted after strain/solution contact time, Staphylococcus aureus [8, 23]: <10 cfu/ml; Number of cfu counted after strain/solution contact time, Staphylococcus aureus [8, 24]: <10 cfu/ml; Number of cfu counted after strain/solution contact time, Staphylococcus aureus [8, 25]: <10 cfu/ml; Number of cfu counted after strain/solution contact time, Enterococcus faecalis ([9]; contact time 0 hours): 2.5 × 10^6 cfu/ml; Number of cfu counted after strain/solution contact time, Enterococcus faecalis ([9]; contact time 6 hours): <10 cfu/ml; Number of cfu counted after strain/solution contact time, Enterococcus faecalis ([9]; contact time 24 hours): <10 cfu/ml; Number of cfu counted after strain/solution contact time, Enterococcus faecalis ([9]; contact time 48 hours): <10 cfu/ml; Number of cfu counted after strain/solution contact time, Enterococcus faecalis ([9]; contact time 72 hours): <10 cfu/ml; Number of cfu counted after strain/solution contact time, Enterococcus faecalis ([9]; contact time 168 hours): <10 cfu/ml
4 | O=C([O-])c1ccccc1.[Na+] [Sodium benzoate] | 2.9 × 10^6 cfu/ml | <10 | <10 | <10 | <10 | <10 | 0 | <0.5 | >4 | 0.6 | 1.4 | >4 | 0.3 | 0.7 | >4 | 0.5 | <0.5 | 3 | 1.7 × 10^6 cfu/ml | 2.5 × 10^6 cfu/ml | Number of cfu counted after strain/solution contact time, Staphylococcus aureus [8, 16]: <10 cfu/ml; Number of cfu counted after strain/solution contact time, Staphylococcus aureus [8, 17]: <10 cfu/ml; Number of cfu counted after strain/solution contact time, Staphylococcus aureus [8, 18]: <10 cfu/ml; Number of cfu counted after strain/solution contact time, Staphylococcus aureus [8, 19]: <10 cfu/ml; Number of cfu counted after strain/solution contact time, Staphylococcus aureus [8, 20]: <10 cfu/ml; Number of cfu counted after strain/solution contact time, Staphylococcus aureus [8, 21]: <10 cfu/ml; Number of cfu counted after strain/solution contact time, Staphylococcus aureus [8, 22]: <10 cfu/ml; Number of cfu counted after strain/solution contact time, Staphylococcus aureus [8, 23]: <10 cfu/ml; Number of cfu counted after strain/solution contact time, Staphylococcus aureus [8, 24]: <10 cfu/ml; Number of cfu counted after strain/solution contact time, Staphylococcus aureus [8, 25]: <10 cfu/ml; Number of cfu counted after strain/solution contact time, Enterococcus faecalis ([9]; contact time 0 hours): 2.5 × 10^6 cfu/ml; Number of cfu counted after strain/solution contact time, Enterococcus faecalis ([9]; contact time 6 hours): 4.4 × 10^5 cfu/ml; Number of cfu counted after strain/solution contact time, Enterococcus faecalis ([9]; contact time 24 hours): 7.0 × 10^2 cfu/ml; Number of cfu counted after strain/solution contact time, Enterococcus faecalis ([9]; contact time 48 hours): <10 cfu/ml; Number of cfu counted after strain/solution contact time, Enterococcus faecalis ([9]; contact time 72 hours): <10 cfu/ml; Number of cfu counted after strain/solution contact time, Enterococcus faecalis ([9]; contact time 168 hours): <10 cfu/ml

Source: patent US20120269739A1, “COMPOSITION, USE, AND PRESERVATION METHOD” (L'OREAL, priority 2009, published 2012)
